target: T1, purified human Factor XIa (Homo sapiens, UniProt P03951); assay: Factor XIa enzyme inhibition assay (chromogenic substrate S-2366), Ki; format: biochemical; conditions: substrate S-2366, pH 7.4
T1 construct: purchased Haematologic Technologies
Description: The effectiveness of compounds of the present invention as inhibitors of the coagulation Factors XIa, VIIa, IXa, Xa, XIIa, plasma kallikrein, thrombin, chemytrypsin or trypsin can be determined using a relevant purified serine protease, respectively, and an appropriate synthetic substrate. The rate of hydrolysis of the chromogenic or fluorogenic substrate by the relevant serine protease was measured both in the absence and presence of compounds of the present invention. […] A decrease in the rate of absorbance or fluorescence change in the presence of inhibitor is indicative of enzyme inhibition. Such methods are known to one skilled in the art. The results of this assay are expressed as the inhibitory constant, Ki.
Factor XIa determinations were made in 50 mM HEPES buffer at pH 7.4 containing 145 mM NaCl, 5 mM KCl, and 0.1% PEG 8000 (polyethylene glycol; JT Baker or Fisher Scientific). Determinations were made using purified human Factor XIa at a final concentration of […] (Haematologic Technologies) and the synthetic substrate S-2366 (pyroGlu-Pro-Arg-pNA; CHROMOGENIX® or AnaSpec) at a concentration of 0.0002-0.001 M.
Values of Ki were determined by allowing the protease to react with the substrate in the presence of the inhibitor. Reactions were allowed to go for periods of 20-180 minutes (depending on the protease) and the velocities (rate of absorbance or fluorescence change versus time) were measured. The following relationships were used to calculate Ki values: (Vmax*S)/(Km+S) (vo−vs)/vs=I/(Ki*(1+S/Km)) for a competitive inhibitor with one binding site; or vs/vo=A+(B−A)/(1+(IC50/(I)^n)); and Ki=IC50/(1+S/Km) for a competitive inhibitor where: […]

T1 sequence (P03951 388-625 limits assumed): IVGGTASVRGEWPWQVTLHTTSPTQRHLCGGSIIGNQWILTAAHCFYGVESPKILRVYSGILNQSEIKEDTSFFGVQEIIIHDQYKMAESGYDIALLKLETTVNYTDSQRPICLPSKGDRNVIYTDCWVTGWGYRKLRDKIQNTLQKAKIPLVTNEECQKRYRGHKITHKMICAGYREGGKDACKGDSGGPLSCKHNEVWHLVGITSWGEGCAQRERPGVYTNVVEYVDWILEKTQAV
T1 sequence (P03951 19-387 partner limits assumed): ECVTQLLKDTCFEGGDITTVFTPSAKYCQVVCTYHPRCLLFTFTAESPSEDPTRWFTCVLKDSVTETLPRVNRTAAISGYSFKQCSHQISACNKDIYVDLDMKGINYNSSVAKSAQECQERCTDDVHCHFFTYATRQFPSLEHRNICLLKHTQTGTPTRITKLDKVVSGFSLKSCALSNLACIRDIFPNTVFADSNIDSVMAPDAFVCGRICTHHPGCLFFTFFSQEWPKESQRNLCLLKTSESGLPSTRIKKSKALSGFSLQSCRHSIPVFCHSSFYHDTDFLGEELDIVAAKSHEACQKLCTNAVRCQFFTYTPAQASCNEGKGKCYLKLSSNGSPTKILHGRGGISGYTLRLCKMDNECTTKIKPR

SMILES | Ki
CN1CCC(CNC(=O)[C@H](Cc2ccccc2)n2cnc(-c3cc(Cl)ccc3-n3cc(Cl)nn3)cc2=O)C1 (mixture of isomers) [Example 48, (2S)-2-(4-(5-chloro-2-(4-chloro-1H-1,2,3-triazol-1-yl)phenyl)-6-oxopyrimidin-1(6H)-yl)-N-((1-methylpyrrolidin-3-yl)methyl)-3-phenylpropanamide] | 7370 nM
O=C([C@H](Cc1ccccc1)n1cnc(-c2cc(Cl)ccc2-n2cc(Cl)nn2)cc1=O)N1CCC(N2C(=O)CCC2O)CC1 (mixture of isomers) [Example 49, 6-(5-chloro-2-(4-chloro-1H-1,2,3-triazol-1-yl)phenyl)-3-((2S)-1-(4-(2-hydroxy-5-oxopyrrolidin-1-yl)piperidin-1-yl)-1-oxo-3-phenylpropan-2-yl)pyrimidin-4(3H)-one] | 7370 nM
N#Cc1cccc(C[C@@H](C(=O)Nc2ccc(C(=O)O)cc2)N2CCC(c3cc(Cl)ccc3-n3ccnn3)=CC2=O)c1 [Compound 138, (S)-4-(2-(4-(5-chloro-2-(1H-1,2,3-triazol-1-yl)phenyl)-6-oxo-3,6-dihydropyridin-1(2H)-yl)-3-(3-cyanophenyl)propanamido) benzoic Acid] | 41.6 nM
NC(=O)c1cccc(C[C@@H](C(=O)Nc2ccc(C(=O)O)cc2)N2CCC(c3cc(Cl)ccc3-n3ccnn3)=CC2=O)c1 [Compound 139, (S)-4-(3-(3-carbamoylphenyl)-2-(4-(5-chloro-2-(1H-1,2,3-triazol-1-yl)phenyl)-6-oxo-3,6-dihydropyridin-1(2H)-yl)propanamido)benzoic Acid] | 25.2 nM
CCOC(=O)Cc1ccc(NC(=O)[C@H](Cc2ccccc2)n2cnc(-c3cc(Cl)ccc3-n3cc(Cl)nn3)cc2=O)cc1 [Example 20, ethyl (S)-2-(4-(2-(4-(5-chloro-2-(4-chloro-1H-1,2,3-triazol-1-yl)phenyl)-6-oxopyrimidin-1(6H)-yl)-3-phenylpropanamido)phenyl)acetate] | 128 nM
O=C(Nc1ncn(CC2CCCC2)n1)[C@H](Cc1ccccc1)n1cnc(-c2cc(Cl)ccc2-n2cc(Cl)nn2)cc1=O [Example 21, (S)-2-(4-(5-chloro-2-(4-chloro-1H-1,2,3-triazol-1-yl)phenyl)-6-oxopyrimidin-1(6H)-yl)-N-(1-(cyclopentylmethyl)-1H-1,2,4-triazol-3-yl)-3-phenylpropanamide] | 553 nM
COC(=O)c1ccc(NC(=O)[C@H](Cc2ccccc2)n2cnc(-c3cc(Cl)ccc3-n3cc(Cl)nn3)cc2=O)cc1 [Example 22, methyl (S)-4-(2-(4-(5-chloro-2-(4-chloro-1H-1,2,3-triazol-1-yl)phenyl)-6-oxopyrimidin-1(6H)-yl)-3-phenylpropanamido)benzoate] | 83.7 nM
O=C(Nc1ccc(Cc2ccncc2)cc1)[C@H](Cc1ccccc1)n1cnc(-c2cc(Cl)ccc2-n2cc(Cl)nn2)cc1=O [Example 24, (S)-2-(4-(5-chloro-2-(4-chloro-1H-1,2,3-triazol-1-yl)phenyl)-6-oxopyrimidin-1(6H)-yl)-3-phenyl-N-(4-(pyridin-4-ylmethyl)phenyl)propanamide] | 112 nM
O=C(Nc1ccc(-c2ccncc2)cc1)[C@H](Cc1ccccc1)n1cnc(-c2cc(Cl)ccc2-n2cc(Cl)nn2)cc1=O [Example 25, (S)-2-(4-(5-chloro-2-(4-chloro-1H-1,2,3-triazol-1-yl)phenyl)-6-oxopyrimidin-1(6H)-yl)-3-phenyl-N-(4-(pyridin-4-yl)phenyl)propanamide] | 49.6 nM
O=C(Nc1cccc2[nH]ccc12)[C@H](Cc1ccccc1)n1cnc(-c2cc(Cl)ccc2-n2cc(Cl)nn2)cc1=O [Example 26, (S)-2-(4-(5-chloro-2-(4-chloro-1H-1,2,3-triazol-1-yl)phenyl)-6-oxopyrimidin-1(6H)-yl)-N-(1H-indol-4-yl)-3-phenylpropanamide] | 22.3 nM
Cn1cnc2cc(NC(=O)[C@H](Cc3ccccc3)n3cnc(-c4cc(Cl)ccc4-n4cc(Cl)nn4)cc3=O)cnc21 [Example 27, (S)-2-(4-(5-chloro-2-(4-chloro-1H-1,2,3-triazol-1-yl)phenyl)-6-oxopyrimidin-1(6H)-yl)-N-(3-methyl-3H-imidazo[4,5-b]pyridin-6-yl)-3-phenylpropanamide] | 420 nM
O=C(Nc1ccc2c(c1)CS(=O)(=O)C2)[C@H](Cc1ccccc1)n1cnc(-c2cc(Cl)ccc2-n2cc(Cl)nn2)cc1=O [Example 28, (S)-2-(4-(5-chloro-2-(4-chloro-1H-1,2,3-triazol-1-yl)phenyl)-6-oxopyrimidin-1(6H)-yl)-N-(2,2-dioxido-1,3-dihydrobenzo[c]thiophen-5-yl)-3-phenylpropanamide] | 80.3 nM
O=C(Nc1cccc2ncccc12)[C@H](Cc1ccccc1)n1cnc(-c2cc(Cl)ccc2-n2cc(Cl)nn2)cc1=O [Example 29, (S)-2-(4-(5-chloro-2-(4-chloro-1H-1,2,3-triazol-1-yl)phenyl)-6-oxopyrimidin-1(6H)-yl)-3-phenyl-N-(quinolin-5-yl)propanamide] | 162 nM
O=C(Nc1ccc2ncncc2c1)[C@H](Cc1ccccc1)n1cnc(-c2cc(Cl)ccc2-n2cc(Cl)nn2)cc1=O [Example 31, (S)-2-(4-(5-chloro-2-(4-chloro-1H-1,2.3-triazol-1-yl)phenyl)-6-oxopyrimidin-1(6H)-yl)-3-phenyl-N-(quinazolin-6-yl)propanamide] | 10.3 nM
Cn1cc(NC(=O)[C@H](Cc2ccccc2)n2cnc(-c3cc(Cl)ccc3-n3cc(Cl)nn3)cc2=O)nn1 [Example 32, (S)-2-(4-(5-chloro-2-(4-chloro-1H-1,2,3-triazol-1-yl)phenyl)-6-oxopyrimidin-1(6H)-yl)-N-(1-methyl-1H-1,2,3-triazol-4-yl)-3-phenylpropanamide] | 341 nM
Cc1nc2ccc(NC(=O)[C@H](Cc3ccccc3)n3cnc(-c4cc(Cl)ccc4-n4cc(Cl)nn4)cc3=O)cc2o1 [Example 33, (S)-2-(4-(5-chloro-2-(4-chloro-1H-1,2,3-triazol-1-yl)phenyl)-6-oxopyrimidin-1(6H)-yl)-N-(2-methylbenzo[d]oxazol-6-yl)-3-phenylpropanamide] | 37.8 nM
CCOC(=O)Cn1ccc(NC(=O)[C@H](Cc2ccccc2)n2cnc(-c3cc(Cl)ccc3-n3cc(Cl)nn3)cc2=O)n1 [Example 34, ethyl (S)-2-(3-(2-(4-(5-chloro-2-(4-chloro-1H-1,2,3-triazol-1-yl)phenyl)-6-oxopyrimidin-1(6H)-yl)-3-phenylpropanamido)-1H-pyrazol-1-yl)acetate] | 1660 nM
CC1(C)Oc2ccc(NC(=O)[C@H](Cc3ccccc3)n3cnc(-c4cc(Cl)ccc4-n4cc(Cl)nn4)cc3=O)nc2NC1=O [Example 35, (S)-2-(4-(5-chloro-2-(4-chloro-1H-1,2,3-triazol-1-yl)phenyl)-6-oxopyrimidin-1(6H)-yl)-N-(2,2-dimethyl-3-oxo-3,4-dihydro-2H-pyrido[3,2-b][1,4]oxazin-6-yl)-3-phenylpropanamide] | 4070 nM
O=C(Nc1cnns1)[C@H](Cc1ccccc1)n1cnc(-c2cc(Cl)ccc2-n2cc(Cl)nn2)cc1=O [Example 36, (S)-2-(4-(5-chloro-2-(4-chloro-1H-1,2,3-triazol-1-yl)phenyl)-6-oxopyrimidin-1(6H)-yl)-3-phenyl-N-(1,2,3-thiadiazol-5-yl)propanamide] | 1340 nM
O=C(Nc1ccc(N2CCOCC2=O)cc1)[C@H](Cc1ccccc1)n1cnc(-c2cc(Cl)ccc2-n2cc(Cl)nn2)cc1=O [Example 37, (S)-2-(4-(5-chloro-2-(4-chloro-1H-1,2,3-triazol-1-yl)phenyl)-6-oxopyrimidin-1(6H)-yl)-N-(4-(3-oxomorpholino)phenyl)-3-phenylpropanamide] | 155 nM
O=C1NCc2cc(F)c(NC(=O)[C@H](Cc3ccccc3)n3cnc(-c4cc(Cl)ccc4-n4cc(Cl)nn4)cc3=O)cc21 [Example 38, (S)-2-(4-(5-chloro-2-(4-chloro-1H-1,2,3-triazol-1-yl)phenyl)-6-oxopyrimidin-1(6H)-yl)-N-(6-fluoro-3-oxoisoindolin-5-yl)-3-phenylpropanamide] | 98.4 nM
Cc1ncn(-c2ccc(NC(=O)[C@H](Cc3ccccc3)n3cnc(-c4cc(Cl)ccc4-n4cc(Cl)nn4)cc3=O)cn2)n1 [Example 39, (S)-2-(4-(5-chloro-2-(4-chloro-1H-1,2,3-triazol-1-yl)phenyl)-6-oxopyrimidin-1(6H)-yl)-N-(6-(3-methyl-1H-1,2,4-triazol-1-yl)pyridin-3-yl)-3-phenylpropanamide] | 110 nM
COC(=O)c1cc(NC(=O)[C@H](Cc2ccccc2)n2cnc(-c3cc(Cl)ccc3-n3cc(Cl)nn3)cc2=O)cn1C [Example 40, methyl (S)-4-(2-(4-(5-chloro-2-(4-chloro-1H-1,2,3-triazol-1-yl)phenyl)-6-oxopyrimidin-1(6H)-yl)-3-phenylpropanamido)-1-methyl-1H-pyrrole-2-carboxylate] | 172 nM
O=C(Nc1ccc(OC2CCOCC2)cc1)[C@H](Cc1ccccc1)n1cnc(-c2cc(Cl)ccc2-n2cc(Cl)nn2)cc1=O [Example 41, (S)-2-(4-(5-chloro-2-(4-chloro-1H-1,2,3-triazol-1-yl)phenyl)-6-oxopyrimidin-1(6H)-yl)-3-phenyl-N-(4-((tetrahydro-2H-pyran-4-yl)oxy)phenyl)propanamide] | 117 nM

Source: patent publication US10336730B2, “Substituted glycine derived FXIA inhibitors” (BRISTOL-MYERS SQUIBB COMPANY, priority 2015, dated 2019)
